Assay [1] concerns colorectal cancer cell lines (e.g. DLD-1, HCT 116, SW620, HCT-15, HCT-8, RKO). Description: Cell based assay, cell viability (CellTiter-Glo), colorectal cancer cell lines. In a few lines:
(§1)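 Each commercial line was plated and allowed 24 h to settle at constant temperature. Compound exposure ran 72 h at final concentrations spanning 0 to 2 μM. Cell viability was then determined by luminescent ATP detection.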
For orientation: Cellular ATP, detected with luciferase, serves as a proxy for viable cell number.

For assay [2], the system named is ovarian cancer cell lines. Description: Cell based assay, cell viability (CellTiter-Glo), ovarian cancer cell lines. To be noted: Homo sapiens; OVCAR-3 cells. In a few lines: as §1
[3] abbreviates: Homo sapiens, DLD-1, 72 hours treatment, read-out: IC50, colorectal cancer cell line DLD-1.
[4] abbreviates: Homo sapiens, HCT 116, 72 hours treatment, read-out: IC50, colorectal cancer cell line HCT 116.
Where [5] appears, read: Homo sapiens, HCT-8, 72 hours treatment, read-out: IC50, colorectal cancer cell line HCT-8.
Where [6] appears, read: Homo sapiens, HCT-15, 72 hours treatment, read-out: IC50, colorectal cancer cell line HCT-15.
Where [7] appears, read: Homo sapiens, HT-29, 72 hours treatment, read-out: IC50, colorectal cancer cell line HT-29.
Where [8] appears, read: Homo sapiens, LoVo, 72 hours treatment, read-out: IC50, colorectal cancer cell line LoVo.
The mark [9] stands for this setting: Homo sapiens, SW480, 72 hours treatment, read-out: IC50, colorectal cancer cell line SW480.
[10] abbreviates: Homo sapiens, SW-620, SW620, 72 hours treatment, read-out: IC50, colorectal cancer cell line SW620.
[11] abbreviates: RKO, 72 hours treatment, read-out: IC50, colorectal cancer cell line RKO.
Where [12] appears, read: Homo sapiens, DLD-1 cells, 72 hours treatment, read-out: IC50, colorectal cancer cell line DLD-1.
Setting [13] is: Homo sapiens, HCT 116 cells, 72 hours treatment, read-out: IC50, colorectal cancer cell line HCT 116.
Where [14] appears, read: Homo sapiens, HCT-8 cells, 72 hours treatment, read-out: IC50, colorectal cancer cell line HCT-8.
[15] abbreviates: Homo sapiens, HCT-15 cells, 72 hours treatment, read-out: IC50, colorectal cancer cell line HCT-15.
Setting [16] is: Homo sapiens, HT-29 cells, 72 hours treatment, read-out: IC50, colorectal cancer cell line HT-29.
[17] abbreviates: Homo sapiens, LoVo cells, 72 hours treatment, read-out: IC50, colorectal cancer cell line LoVo.
Where [18] appears, read: Homo sapiens, RKO cells, 72 hours treatment, read-out: IC50, colorectal cancer cell line RKO.
[19] abbreviates: Homo sapiens, SW480 cells, 72 hours treatment, read-out: IC50, colorectal cancer cell line SW480.
Setting [20] is: Homo sapiens, SW-620, SW620 cells, 72 hours treatment, read-out: IC50, colorectal cancer cell line SW620.

pIC50: −log10 of the molar value. Where two headings read alike, the source gives them in different places.

Usually pIC50 stands for the negative decadic logarithm of the IC50, by convention in mol/L. With `CC(=O)c1c([S+]([O-])Cc2ccc(C#N)cc2)[nH]c2c(Br)ccc(Cl)c2c1=O` (stereo not shown) [Compound 73, 4-(((3-acetyl-8-bromo-5-chloro-4-oxo-1,4-dihydroquinolin-2-yl)sulfinyl)methyl)benzonitrile], the pIC50 in assay [1] (setting [3]) was 5.88; in assay [1] (setting [4]), 5.73; in assay [1] (setting [5]), below 5.70; in assay [1] (setting [6]), below 5.70; in assay [1] (setting [7]), below 5.00; in assay [1] (setting [8]), below 5.70. In addition, the pIC50 was below 5.70 in assay [1] (setting [9]), below 5.70 in assay [1] (setting [10]), below 5.70 in assay [1] (setting [11]) and 5.95 in assay [2].
With `CC(=O)c1c([S+]([O-])Cc2c(F)cccc2Cl)[nH]c2c(Br)ccc(Cl)c2c1=O` (stereo not shown) [Compound 74, 3-acetyl-8-bromo-5-chloro-2-((2-chloro-6-fluorobenzyl)sulfinyl)quinolin-4(1H)-one], the pIC50 was 5.99 in assay [1] (setting [3]); 5.79 in assay [1] (setting [4]); 5.70 in assay [1] (setting [5]); 5.82 in assay [1] (setting [6]); below 5.00 in assay [1] (setting [7]); below 5.70 in assay [1] (setting [8]). Further, the pIC50 was below 5.70 in assay [1] (setting [9]), 5.75 in assay [1] (setting [10]), below 5.70 in assay [1] (setting [11]) and 6.01 in assay [2].
In the case of `COc1cc(S(F)(F)(F)(F)F)ccc1C[S+]([O-])c1[nH]c2c(Br)ccc(Cl)c2c(=O)c1C(C)=O` (stereo not shown) [Compound 75, 3-acetyl-8-bromo-5-chloro-2-((2-methoxy-4-(pentafluoro--sulfanyl)benzyl)sulfinyl)quinolin-4(1H)-one], the pIC50 is 6.06 in assay [1] (setting [3]); 5.90 in assay [1] (setting [4]); 5.75 in assay [1] (setting [5]); 5.86 in assay [1] (setting [6]); below 5.00 in assay [1] (setting [7]); below 5.70 in assay [1] (setting [8]). Moreover, the pIC50 is 5.78 in assay [1] (setting [9]), 5.75 in assay [1] (setting [10]), 5.88 in assay [1] (setting [11]) and 5.87 in assay [2].
As to `CC(=O)c1c([S+]([O-])Cc2cc(F)cc(S(F)(F)(F)(F)F)c2)[nH]c2c(Br)ccc(Cl)c2c1=O` (stereo not shown) [Compound 76, 3-acetyl-8-bromo-5-chloro-2-((3-fluoro-5-(pentafluoro--sulfanyl)benzyl)sulfinyl)quinolin-4(1H)-one], the pIC50 was 5.96 in assay [1] (setting [3]); 5.80 in assay [1] (setting [4]); below 5.70 in assay [1] (setting [5]); 5.79 in assay [1] (setting [6]); below 5.00 in assay [1] (setting [7]); below 5.70 in assay [1] (setting [8]). Moreover, the pIC50 was below 5.70 in assay [1] (setting [9]), below 5.70 in assay [1] (setting [10]), 5.82 in assay [1] (setting [11]) and 5.84 in assay [2].
In the case of `CC(=O)c1c([S+]([O-])Cc2c(F)c(F)c(F)c(F)c2F)[nH]c2c(Br)ccc(Cl)c2c1=O` (stereo not shown) [Compound 78, 3-acetyl-8-bromo-5-chloro-2-(((perfluorophenyl)methyl)sulfinyl)quinolin-4(1H)-one], the pIC50 in assay [1] (setting [3]) was 5.89; in assay [1] (setting [4]), 5.71; in assay [1] (setting [5]) it was below 5.70; in assay [1] (setting [6]) it was 5.80; in assay [1] (setting [7]) it was below 5.00; in assay [1] (setting [8]), below 5.70. Further, the pIC50 in assay [1] (setting [9]) was below 5.70; in assay [1] (setting [10]), 5.75; in assay [1] (setting [11]), 5.82; in assay [2], 6.00.
For the compound `CC(=O)c1c([S+]([O-])Cc2ccc(I)cc2)[nH]c2c(Cl)ccc(Cl)c2c1=O` (stereo not shown) [Compound 83, 3-acetyl-5,8-dichloro-2-((4-iodobenzyl)sulfinyl)quinolin-4(1H)-one], the negative-log IC50 (pIC50) was 5.86 in assay [1] (setting [12]); 5.74 in assay [1] (setting [13]); 5.73 in assay [1] (setting [14]); 5.79 in assay [1] (setting [15]); below 5.00 in assay [1] (setting [16]); below 5.70 in assay [1] (setting [17]). The negative logarithm of the IC50 (pIC50) in assay [1] (setting [18]) was 5.99; in assay [1] (setting [19]), below 5.70; in assay [1] (setting [20]) it was below 5.70; in assay [2] it was 6.09.
On to `CC(=O)c1c([S+]([O-])Cc2cccnc2)[nH]c2c(Br)ccc(Cl)c2c1=O` (stereo not shown) [Compound 84, 3-acetyl-8-bromo-5-chloro-2-((pyridin-3-ylmethyl)sulfinyl)quinolin-4(1H)-one], for which the pIC50 is 6.03 in assay [1] (setting [12]); 5.94 in assay [1] (setting [13]); 5.89 in assay [1] (setting [14]); 5.82 in assay [1] (setting [15]); below 5.00 in assay [1] (setting [16]); 5.71 in assay [1] (setting [17]). In addition, the negative-log IC50 (pIC50) in assay [1] (setting [18]) is 5.90; in assay [1] (setting [19]), 5.81; in assay [1] (setting [20]) it was 5.91; in assay [2] it was 6.23.
In the case of `Cc1cc(C[S+]([O-])c2[nH]c3c(Cl)ccc(Cl)c3c(=O)c2C(=O)C(C)C)no1` (stereo not shown) [Compound 86, 5,8-dichloro-3-isobutyryl-2-(((5-methylisoxazol-3-yl)methyl)sulfinyl)quinolin-4(1H)-one], the pIC50 in assay [1] (setting [12]) is 5.96; in assay [1] (setting [13]), 6.07; in assay [1] (setting [14]) it was 5.95; in assay [1] (setting [15]), 5.90; in assay [1] (setting [16]) it was below 5.00; in assay [1] (setting [17]), 5.94. Besides, the pIC50 was 6.05 in assay [1] (setting [18]), 5.90 in assay [1] (setting [19]), 6.13 in assay [1] (setting [20]) and 6.42 in assay [2].
With `COC(=O)c1ccc(C[S+]([O-])c2[nH]c3c(Cl)ccc(Cl)c3c(=O)c2C(C)=O)o1` (stereo not shown) [Compound 89, methyl 5-(((3-acetyl-5,8-dichloro-4-oxo-1,4-dihydroquinolin-2-yl)sulfinyl)methyl)furan-2-carboxylate], the pIC50 in assay [1] (setting [12]) was 5.79; in assay [1] (setting [13]), 5.80; in assay [1] (setting [14]) it was below 5.70; in assay [1] (setting [15]), below 5.70; in assay [1] (setting [16]) it was below 5.00; in assay [1] (setting [17]), below 5.70. The pIC50 in assay [1] (setting [18]) was 5.76; in assay [1] (setting [19]), below 5.70; in assay [1] (setting [20]) it was 5.77; in assay [2], 6.07.
With `Cc1cc(C[S+]([O-])c2[nH]c3c(Br)ccc(Cl)c3c(=O)c2C(=O)C(C)C)no1` (stereo not shown) [Compound 95, 8-bromo-5-chloro-3-isobutyryl-2-(((5-methylisoxazol-3-yl)methyl)sulfinyl)quinolin-4(1H)-one], the pIC50 in assay [1] (setting [12]) was 5.95; in assay [1] (setting [13]), 6.12; in assay [1] (setting [14]) it was 6.09; in assay [1] (setting [15]), 5.97; in assay [1] (setting [16]), below 5.00; in assay [1] (setting [17]), 6.04. For the same compound, the pIC50 is 6.04 in assay [1] (setting [18]), 5.92 in assay [1] (setting [19]), 6.19 in assay [1] (setting [20]) and 6.42 in assay [2].

Source of the values: patent US11464770B2, “Anticancer pharmaceutical composition” (NATIONAL CANCER CENTER, priority 2016, dated 2022).
